From patent publication US10426775B2, “Methods for treating Friedreich's ataxia with etravirine” (Fratagene Therapeutics srl, priority 2017, dated 2019)

Columns and labels:
Assay type in all cases: cell-based, human
frataxin precursor = experiment: Western blot of frataxin in HEK293 cells expressing only endogenous frataxin; conditions: 10 μM etravirine
Method: Total cell extracts were prepared in lysis buffer (50 mM Tris-HCl, pH 7.5, 150 mM NaCl, 1% Igepal CA-630, 5 mM EDTA, 5 mM EGTA) supplemented with complete protease inhibitor cocktail (Roche Diagnostics, Indianapolis, Ind., USA). Lysates were clarified by centrifugation and supernatants were mixed with 4× Laemmli sample buffer (50 mM Tris pH 6.8, 2% SDS, 10% gliycerol, 0.0025% bromophenol blue, 5% beta-mercaptoethanol), boiled for 5 min, resolved by precast 12% SDS-PAGE gels (Bio-Rad Laboratories, Hercules, Calif., USA) and transferred to […] nitrocellulose membrane (TRANS-BLOT® TURBO™ Transfer pack, Bio-Rad). […] The immunoreactive bands were detected by ECL (GE Healthcare, Chalfont St. Giles, UK) and imaged with a ChemiDoc XRS system (Bio-Rad). […] All values are expressed as means±1 S.E.M.
The identified candidate drugs were individually validated for their ability to promote frataxin accumulation in different cell types. […] Protein extracts from the cell lines were resolved on SDS-PAGE and analyzed by western blot with anti-frataxin antibody and anti-tubulin as a loading control. […]
HEK 293-fxn stably expressing frataxin (A), HEK 293 (B), or FRDA lymphoblast cell line GM16203 (C) were treated with 10 μM etravirine for the indicated time points. Protein extracts were resolved on SDS-PAGE and analyzed by western blot with anti-frataxin antibody and anti-tubulin as a loading control. […]

frataxin [1] = experiment: Western blot of frataxin in lymphoblastoid cell lines derived from FRDA patients
Method: Lymphoblastoid cell lines from one healthy subject [GM16215] and 7 FRDA patients [GM16228, GM16203, GM16214, GM16223, GM16210, GM16205, GM16216], and primary fibroblasts from 2 FRDA patients [GM02816 and GM04078], were obtained from NIGMS Human Genetic Cell Repository, Coriell Institute for Medical Research (Camden, N.J., USA). Lymphoblasts and fibroblasts were grown at 37° C. and 5% CO2 and were respectively cultured in RPMI or DMEM, supplemented with 15% FBS, […] penicillin/streptomycin and 2 mM L-glutamine.
For the validation steps, etravirine (TMC125) was purchased from Selleckchem and was dissolved in DMSO at a stock concentration of 10 mM. HEK-293 Flp-In cells, stably overexpressing frataxin, were treated with the drug (or only DMSO) for 24 hours at final concentration of 10 μM. FRDA cells were treated with different concentration of etravirine. For all drug (and no drug) treatments, the final concentration of DMSO in the cell culture medium was 0.1%.
Total cell extracts were prepared in lysis buffer (50 mM Tris-HCl, pH 7.5, 150 mM NaCl, 1% Igepal CA-630, 5 mM EDTA, 5 mM EGTA) supplemented with complete protease inhibitor cocktail (Roche Diagnostics, Indianapolis, Ind., USA). Lysates were clarified by centrifugation and supernatants were mixed with 4× Laemmli sample buffer (50 mM Tris pH 6.8, 2% SDS, 10% gliycerol, 0.0025% bromophenol blue, 5% beta-mercaptoethanol), boiled for 5 min, resolved by precast 12% SDS-PAGE gels (Bio-Rad Laboratories, Hercules, Calif., USA) and transferred to […] nitrocellulose membrane (TRANS-BLOT® TURBO™ Transfer pack, Bio-Rad). Membranes were blocked with 5% non-fat dry milk, 0.1% Tween 20 in phosphate-buffered saline (PBS) and incubated with the indicated primary and secondary antibodies. The immunoreactive bands were detected by ECL (GE Healthcare, Chalfont St. Giles, UK) and imaged with a ChemiDoc XRS system (Bio-Rad). Densitometry analysis was performed using the ImageLab 4.1 Software (Bio-Rad). To analyse the western blot densitometry results, a Student's t test was applied. All values are expressed as means±1 S.E.M.
In order to evaluate whether the precursor that readily accumulates upon etravirine treatment can be converted into the mature functional form of frataxin, we tested the effect of different doses of etravirine, ranging from 100 nM to 10 μM, on a lymphoblastoid cell line, GM16203, derived from an FRDA patient. The cells were treated with the indicated doses of etravirine for 24 hours. Cell extracts were resolved on SDS-PAGE and analyzed by western blot analysis with anti-frataxin and anti-tubulin, as a loading control. We tested different doses, ranging from 100 nM to 3 μM, on the lymphoblastoid cell line GM16203.
A) FRDA lymphoblast cells, GM16203, were treated with the indicated doses of etravirine for 24 hours. Cell extracts were resolved on SDS-PAGE and analyzed by western blot analysis with anti-frataxin (lower panel) and anti-tubulin (upper panel), as a loading control. Int: intermediate frataxin; mat: mature frataxin; tub: tubulin. B) The graph represents the relative mature frataxin levels measured by densitometric analysis of independent blots and normalized with tubulin levels. Data represent the average of three independent experiments±S.E.M. p-values were calculated with Student's t-test (*p<0.05; **p<0.01)
We chose the minimal effective dose (300 nM) to evaluate the efficacy of etravirine over a broad range of cells derived from FRDA patients. In particular, we analysed 7 lymphoblastoid cell lines derived from FRDA patients and primary fibroblasts derived from two different FRDA patients. Each cell line was treated with 300 nM etravirine for 24 hours. Cell extracts were resolved on SDS-PAGE and analyzed by western blot analysis with anti-frataxin and anti-tubulin, as a loading control. Etravirine promotes increase in intermediate and mature frataxin levels in all the cell lines tested upon 24 hours of treatment (FIGS. 3A-3B). […]

frataxin [2] = experiment: as above; conditions: GM16214, 500 nM etravirine, 24 and 48 hours, compared with GM16215

## Cc1cc(C#N)cc(C)c1Oc1nc(Nc2ccc(C#N)cc2)nc(N)c1Br [etravirine]
Frataxin precursor
  frataxin precursor accumulation: can also be detected
Frataxin [1]; FRDA lymphoblast cell line GM16203, 10 μM etravirine
  frataxin precursor accumulation: can also be detected
Frataxin [1]; GM16203 lymphoblasts (830 GAA repeats), 300 nM etravirine, 24 hours
  average fold increase in mature frataxin levels: 1.41 fold
Frataxin [1]; GM16203 lymphoblasts, 24 hours, doses 100 nM to 10 μM
  minimal effective dose (sufficient for a significant increase in intermediate and mature frataxin forms): 300 nM
Frataxin [1]; GM16203 lymphoblasts, 24 hours, etravirine at 10 (μM)
  frataxin form induced at the highest dose: mostly induces precursor accumulation
Frataxin [1]; GM16205 lymphoblasts (530 GAA repeats), 300 nM etravirine, 24 hours
  average fold increase in mature frataxin levels: 1.58 fold
Frataxin [1]; GM16210 lymphoblasts (580 GAA repeats), 300 nM etravirine, 24 hours
  average fold increase in mature frataxin levels: 1.22 fold
Frataxin [1]; GM16214 lymphoblasts (700 GAA repeats), 300 nM etravirine, 24 hours
  average fold increase in mature frataxin levels: 1.71 fold
Frataxin [1]; GM16214 treated vs GM16215 untreated, 24 hours, 300 nM etravirine
  frataxin accumulation in treated patient cells vs unaffected carrier cells: comparable to frataxin levels in untreated cells derived from healthy control
Frataxin [1]; GM16216 lymphoblasts (500 GAA repeats), 300 nM etravirine, 24 hours
  average fold increase in mature frataxin levels: 1.21 fold
Frataxin [1]; GM16223 lymphoblasts (630 GAA repeats), 300 nM etravirine, 24 hours
  average fold increase in mature frataxin levels: 1.22 fold
Frataxin [1]; GM16228 lymphoblasts (840 GAA repeats), 300 nM etravirine, 24 hours
  average fold increase in mature frataxin levels: 1.62 fold
Frataxin [1]; all FRDA lymphoblastoid lines and fibroblasts tested, 300 nM etravirine, 24 hours
  overall increase in mature frataxin levels in cells derived from FRDA patients: 50%
Frataxin [2]
  frataxin levels in FRDA cells during etravirine treatment: increase over time
